According to paper PMC4290489, “Identification of multiple salicylic acid-binding proteins using two high throughput screens” (Frontiers in Plant Science, 2015):

How the values were obtained:
Type in all cases: binding
[1] = target: T1, TPPII (Arabidopsis thaliana, UniProt F4JVN6); test: UV photo-crosslinking, anti-SA immunoblot; settings: 50 uM 4AzSA, PBS, on ice, 254 nm UV; covalent; competed by SA
T1 construct: gene TPP2; N-terminal His6 (pET28a), from E. coli
T1 sequence (F4JVN6 1-1380): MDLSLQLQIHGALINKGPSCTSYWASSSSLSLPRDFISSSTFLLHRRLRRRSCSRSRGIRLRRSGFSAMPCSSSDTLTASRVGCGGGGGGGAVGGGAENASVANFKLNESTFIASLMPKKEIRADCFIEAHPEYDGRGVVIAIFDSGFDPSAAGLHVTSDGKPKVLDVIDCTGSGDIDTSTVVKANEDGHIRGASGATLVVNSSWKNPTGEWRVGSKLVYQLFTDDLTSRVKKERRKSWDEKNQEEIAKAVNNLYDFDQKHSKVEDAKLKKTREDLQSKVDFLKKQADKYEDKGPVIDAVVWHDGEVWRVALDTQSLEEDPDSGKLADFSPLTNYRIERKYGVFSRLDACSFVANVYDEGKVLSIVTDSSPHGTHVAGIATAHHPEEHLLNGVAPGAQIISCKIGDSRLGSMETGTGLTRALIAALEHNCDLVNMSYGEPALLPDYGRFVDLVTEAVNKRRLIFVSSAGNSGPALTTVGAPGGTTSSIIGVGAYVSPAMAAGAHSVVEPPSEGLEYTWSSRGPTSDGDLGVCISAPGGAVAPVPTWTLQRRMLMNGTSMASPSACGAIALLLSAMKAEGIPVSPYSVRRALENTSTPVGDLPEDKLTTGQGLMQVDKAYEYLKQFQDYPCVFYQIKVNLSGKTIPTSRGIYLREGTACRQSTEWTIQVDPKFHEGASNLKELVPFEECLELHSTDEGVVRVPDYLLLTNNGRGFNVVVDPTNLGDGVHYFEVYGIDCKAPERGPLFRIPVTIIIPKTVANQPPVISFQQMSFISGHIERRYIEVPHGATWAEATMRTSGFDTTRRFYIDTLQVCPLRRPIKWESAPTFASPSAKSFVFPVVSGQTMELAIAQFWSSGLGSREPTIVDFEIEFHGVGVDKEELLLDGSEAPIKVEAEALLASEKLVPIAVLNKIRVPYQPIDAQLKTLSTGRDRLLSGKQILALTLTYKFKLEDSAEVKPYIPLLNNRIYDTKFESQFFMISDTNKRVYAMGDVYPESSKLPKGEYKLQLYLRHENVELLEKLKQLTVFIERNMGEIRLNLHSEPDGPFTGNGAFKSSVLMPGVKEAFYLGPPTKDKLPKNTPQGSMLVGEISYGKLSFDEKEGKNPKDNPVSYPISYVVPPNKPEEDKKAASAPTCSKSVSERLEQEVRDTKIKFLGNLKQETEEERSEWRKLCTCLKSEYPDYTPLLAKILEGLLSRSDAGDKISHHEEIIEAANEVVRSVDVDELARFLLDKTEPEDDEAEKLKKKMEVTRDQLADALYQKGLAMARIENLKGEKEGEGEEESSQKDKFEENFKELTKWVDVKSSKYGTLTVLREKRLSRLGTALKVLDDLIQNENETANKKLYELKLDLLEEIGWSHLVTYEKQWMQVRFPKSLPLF

[2] = target: T2, TRX-m1 (Arabidopsis thaliana, UniProt O48737); test: UV photo-crosslinking, anti-SA immunoblot; settings: 50 uM 4AzSA, PBS, on ice, 254 nm UV; covalent; competed by SA
T2 construct: gene At1g03680; N-terminal His6 (pET28a), from E. coli
T2 sequence (O48737 49-179): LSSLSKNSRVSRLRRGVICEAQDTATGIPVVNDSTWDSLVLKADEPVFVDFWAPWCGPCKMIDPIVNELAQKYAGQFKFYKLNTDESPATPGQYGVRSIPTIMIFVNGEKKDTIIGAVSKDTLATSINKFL

[3] = target: T3, GPX2 (Arabidopsis thaliana, UniProt O04922); test: UV photo-crosslinking, anti-SA immunoblot; settings: 50 uM 4AzSA, PBS, on ice, 254 nm UV; covalent; competed by SA
T3 construct: N-terminal His6 (pET28a), from E. coli
T3 sequence (O04922 1-169): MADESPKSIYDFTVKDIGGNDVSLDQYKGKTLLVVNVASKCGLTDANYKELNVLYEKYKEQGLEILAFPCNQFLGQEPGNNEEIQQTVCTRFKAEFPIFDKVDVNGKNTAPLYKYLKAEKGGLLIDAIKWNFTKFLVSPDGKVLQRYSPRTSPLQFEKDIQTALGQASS

[4] = target: T4, RBCS1A (Arabidopsis thaliana, UniProt P10795); test: UV photo-crosslinking, anti-SA immunoblot; settings: 50 uM 4AzSA, PBS, on ice, 254 nm UV; covalent; competed by SA
T4 construct: gene RBCS-1A; small subunit alone, N-terminal His6 (pET28a), from E. coli

[5] = target: T5, UGE2 (Arabidopsis thaliana, UniProt Q9T0A7); test: UV photo-crosslinking, anti-SA immunoblot; settings: 50 uM 4AzSA, PBS, on ice, 254 nm UV; covalent; competed by SA
T5 construct: N-terminal His6 (pET28a), from E. coli
T5 sequence (Q9T0A7 1-350): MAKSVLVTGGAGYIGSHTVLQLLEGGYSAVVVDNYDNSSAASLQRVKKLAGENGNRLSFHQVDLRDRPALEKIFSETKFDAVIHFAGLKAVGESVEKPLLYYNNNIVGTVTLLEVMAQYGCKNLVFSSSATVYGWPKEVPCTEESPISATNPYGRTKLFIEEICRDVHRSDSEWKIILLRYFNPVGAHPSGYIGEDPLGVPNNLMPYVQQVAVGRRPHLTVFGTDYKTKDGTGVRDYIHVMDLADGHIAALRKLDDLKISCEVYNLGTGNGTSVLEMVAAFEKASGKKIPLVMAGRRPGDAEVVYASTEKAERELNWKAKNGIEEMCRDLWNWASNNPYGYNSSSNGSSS

[6] = target: T6, HPR2 (Arabidopsis thaliana, UniProt Q9CA90); test: UV photo-crosslinking, anti-SA immunoblot; settings: 50 uM 4AzSA, PBS, on ice, 254 nm UV; covalent; competed by SA
T6 construct: N-terminal His6 (pET28a), from E. coli
T6 sequence (Q9CA90 1-313): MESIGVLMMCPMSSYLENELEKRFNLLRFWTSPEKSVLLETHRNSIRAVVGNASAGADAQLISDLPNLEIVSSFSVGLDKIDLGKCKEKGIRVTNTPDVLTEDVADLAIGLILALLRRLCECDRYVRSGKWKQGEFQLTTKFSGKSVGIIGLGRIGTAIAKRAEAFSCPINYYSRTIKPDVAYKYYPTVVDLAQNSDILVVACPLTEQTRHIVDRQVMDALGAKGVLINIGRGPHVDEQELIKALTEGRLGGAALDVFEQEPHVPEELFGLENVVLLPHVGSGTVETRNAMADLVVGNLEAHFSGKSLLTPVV

[7] = target: T3, GPX2; test: SPR competition on 3AESA chip; competition of 4AzSA photo-crosslinking; settings: 1-5 mM SA, HBS-EP pH 7.4 (SPR); competes with 3AESA and 4AzSA
[8] = target: T1, TPPII; test: as above; settings: 1-5 mM SA, HBS-EP pH 7.4 (SPR); competes with 3AESA and 4AzSA
[9] = target: T5, UGE2; test: as above; settings: 1-5 mM SA, HBS-EP pH 7.4 (SPR); competes with 3AESA and 4AzSA
[10] = target: T2, TRX-m1; test: as above; settings: 1-5 mM SA, HBS-EP pH 7.4 (SPR); competes with 3AESA and 4AzSA

[N-]=[N+]=Nc1ccc(C(=O)O)c(O)c1 [4AzSA]
UV photo-crosslinking, anti-SA immunoblot [1]: These five proteins also bound and crosslinked to 4AzSA | UV photo-crosslinking, anti-SA immunoblot [2]: These five proteins also bound and crosslinked to 4AzSA | UV photo-crosslinking, anti-SA immunoblot [3]: bound 3AESA and crosslinked to 4AzSA in an SA-inhibitable manner, indicating that they are SABPs | UV photo-crosslinking, anti-SA immunoblot [4]: bound 3AESA and crosslinked to 4AzSA in an SA-inhibitable manner, indicating that they are SABPs | UV photo-crosslinking, anti-SA immunoblot [5]: bound 3AESA and crosslinked to 4AzSA in an SA-inhibitable manner, indicating that they are SABPs | UV photo-crosslinking, anti-SA immunoblot [6]: bound 3AESA and crosslinked to 4AzSA in an SA-inhibitable manner, indicating that they are SABPs

O=C(O)c1ccccc1O [SA]
SPR competition on 3AESA chip; competition of 4AzSA photo-crosslinking [7]: bound 3AESA and crosslinked to 4AzSA in an SA-inhibitable manner, indicating that they are SABPs | SPR competition on 3AESA chip; competition of 4AzSA photo-crosslinking [8]: SA competes with 3AESA and 4AzSA for binding by TRX-m1, TPPII, SHM4, and LOX2 | SPR competition on 3AESA chip; competition of 4AzSA photo-crosslinking [9]: bound 3AESA and crosslinked to 4AzSA in an SA-inhibitable manner, indicating that they are SABPs | SPR competition on 3AESA chip; competition of 4AzSA photo-crosslinking [10]: SA competes with 3AESA and 4AzSA for binding by TRX-m1, TPPII, SHM4, and LOX2
